From article PMC8709289, “Tetrahydroimidazo[4,5-c]pyridine-Based Inhibitors of Porphyromonas gingivalis Glutaminyl Cyclase” (Pharmaceuticals, 2021)
Like-named read-outs stand apart in the source and are kept apart here.

Assays:
[1] = target: PgQC (glutaminyl cyclase from P. gingivalis) (Porphyromonas gingivalis, UniProt Q7MT37); experiment: Inhibition of P. gingivalis glutaminyl cyclase, fluorogenic substrate H-Gln-AMC; format: biochemical
Description: (§2) The enzymatic activity of recombinant QCs were evaluated using the fluorogenic substrate H-Gln-AMC as described previously [25]. For inhibitor testing, compounds were added with 1% (v/v) DMSO in the reaction mixture. Inhibitory constants were determined using concentrations of H-Gln-AMC varying from 1/4 KM to 2 KM and a final concentration of QC in a range between 20 and 50 nM. Progress curves were fitted to the general equation for competitive inhibition using GraFit software (Version 7, Erithacus software Ltd., Horley, UK).

[2] = Cytotoxicity, cell viability in Hep-G2; format: cell-based; details: human, Hep-G2 cells; 30 µM compound
Excerpt: (§1) Table 3 Inhibition of related glutaminyl cyclases from bacteria and human and cytotoxicity of selected inhibitors. | column: 8k; 8t; 8w

[3] = Cytotoxicity, cell viability in SHSY-5Y; format: cell-based; details: human, SHSY-5Y cells; 30 µM compound
Excerpt: as §1

PiQC = PiQC (Prevotella intermedia, UniProt A0A3R7XL21); experiment: Inhibition of Prevotella intermedia glutaminyl cyclase, fluorogenic substrate H-Gln-AMC; format: biochemical; details: recombinant QC, competitive inhibition fit
Sequence of PiQC (A0A3R7XL21 entry or part of it): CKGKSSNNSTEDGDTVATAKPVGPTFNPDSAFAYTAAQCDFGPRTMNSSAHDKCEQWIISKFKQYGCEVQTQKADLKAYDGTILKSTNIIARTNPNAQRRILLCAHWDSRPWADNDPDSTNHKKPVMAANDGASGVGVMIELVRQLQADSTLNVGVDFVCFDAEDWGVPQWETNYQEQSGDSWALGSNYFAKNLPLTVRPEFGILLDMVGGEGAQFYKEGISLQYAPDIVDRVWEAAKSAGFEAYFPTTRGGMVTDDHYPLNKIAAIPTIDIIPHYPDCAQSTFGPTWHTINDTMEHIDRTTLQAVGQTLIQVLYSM
Description: (§3) The enzymatic activity of recombinant QCs were evaluated using the fluorogenic substrate H-Gln-AMC as described previously [25]. For inhibitor testing, compounds were added with 1% (v/v) DMSO in the reaction mixture.

[4] = target: hQC (human glutaminyl cyclase) (Homo sapiens, UniProt Q16769); experiment: Inhibition of human glutaminyl cyclase, fluorogenic substrate H-Gln-AMC; format: biochemical
Sequence of hQC (human glutaminyl cyclase) (Q16769 29-361): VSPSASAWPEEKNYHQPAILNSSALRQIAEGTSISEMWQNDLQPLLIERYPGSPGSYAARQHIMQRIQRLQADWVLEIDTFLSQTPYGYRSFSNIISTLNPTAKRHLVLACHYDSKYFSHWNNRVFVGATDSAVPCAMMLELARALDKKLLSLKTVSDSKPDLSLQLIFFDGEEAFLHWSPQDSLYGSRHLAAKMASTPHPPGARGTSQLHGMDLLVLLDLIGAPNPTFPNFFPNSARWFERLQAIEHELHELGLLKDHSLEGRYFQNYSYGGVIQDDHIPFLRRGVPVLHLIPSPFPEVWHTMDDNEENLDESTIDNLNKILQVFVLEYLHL
Description: as §3

TfQC = experiment: Inhibition of Tannerella forsythia glutaminyl cyclase, fluorogenic substrate H-Gln-AMC; details: read-out: Ki TfQC; recombinant QC, competitive inhibition fit
Description: as §2

[5] = recombinant QC, competitive inhibition fit, read-out: Ki PgQC
[6] = recombinant QC, competitive inhibition fit, read-out: Ki hQC

Sequence of PgQC (glutaminyl cyclase from P. gingivalis) (Q7MT37 entry or part of it): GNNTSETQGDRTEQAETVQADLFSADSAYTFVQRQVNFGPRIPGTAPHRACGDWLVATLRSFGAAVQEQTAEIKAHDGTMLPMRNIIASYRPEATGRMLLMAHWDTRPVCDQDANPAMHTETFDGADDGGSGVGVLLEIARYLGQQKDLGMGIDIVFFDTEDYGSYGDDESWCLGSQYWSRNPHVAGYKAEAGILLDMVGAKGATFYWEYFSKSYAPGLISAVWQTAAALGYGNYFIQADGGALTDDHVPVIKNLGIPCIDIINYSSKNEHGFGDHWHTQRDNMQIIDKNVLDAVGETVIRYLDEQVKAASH

| Structure (SMILES) | Ki [1, 5] | further results |
| --- | --- | --- |
| O=C(c1ccccc1)N1CCc2[nH]cnc2C1 [8a, Phenyl(3,4,6,7-tetrahydroimidazo[4,5-c]pyridin-5-yl)methanone] | 435 ± 15 nM |  |
| c1ccc(CNCCc2c[nH]cn2)cc1 [6a, N-Benzylhistamine] |  | Inhibition of PgQC at 10 µM [1]: no inhibition @ 10 µM |
| O=C(c1ccc2c(c1)OCO2)N1CCc2[nH]cnc2C1 [8q, Benzo[d][1,3]dioxol-5-yl(3,4,6,7-tetrahydroimidazo[4,5-c]pyridin-5-yl)methanone] | 560 ± 4 nM |  |
| O=C(c1ccc(Cl)cc1)N1CCc2[nH]cnc2C1 [8h, (4-Chlorophenyl)-(3,4,6,7-tetrahydroimidazo[4,5-c]pyridin-5-yl)methanone] | 682 ± 25 nM |  |
| c1c[nH]cn1 [compound 2, imidazole, reference compound] | 350000 ± 23000 nM |  |
| O=C(/C=C/c1ccccc1)N1CCc2[nH]cnc2C1 [8d, (E)-3-Phenyl-1-(3,4,6,7-tetrahydroimidazo[4,5-c]pyridin-5-yl)prop-2-en-1-one] | 1570 ± 25 nM |  |
| O=C(c1cccc(-c2ccccc2)c1)N1CCc2[nH]cnc2C1 [8v, [1,1′-Biphenyl]-3-yl-(3,4,6,7-tetrahydroimidazo[4,5-c]pyridin-5-yl)methanone] | 547 ± 41 nM |  |
| O=C(Cc1ccccc1)N1CCc2[nH]cnc2C1 [8b, 2-Phenyl-1-(3,4,6,7-tetrahydroimidazo[4,5-c]pyridin-5-yl)ethanone] | 1680 ± 80 nM |  |
| O=C(c1ccc2ccccc2c1)N1CCc2nc[nH]c2C1 [8w, Naphthalen-2-yl-(3,4,6,7-tetrahydroimidazo[4,5-c]pyridin-5-yl)methanone] |  | viability at 30 µM [2]: 94%; viability at 30 µM [3]: 127%; Ki (PiQC): 117 ± 2 nM; Ki [1]: 126 ± 9 nM; Ki [4, 6]: 132 ± 11 nM; Ki (TfQC): 185 ± 10 nM |
| O=C(c1ccc(F)cc1)N1CCc2[nH]cnc2C1 [8e, (4-Fluorophenyl)-(3,4,6,7-tetrahydroimidazo[4,5-c]pyridin-5-yl)methanone] | 879 ± 8 nM |  |
| O=C(c1cc(Cl)cc(Cl)c1)N1CCc2nc[nH]c2C1 [8k, (3,5-Dichlorophenyl)-(3,4,6,7-tetrahydroimidazo[4,5-c]pyridin-5-yl)methanone] | 100 ± 6 nM | viability at 30 µM [2]: 92%; viability at 30 µM [3]: 119%; Ki (PiQC): 63 ± 7 nM; Ki [4, 6]: 387 ± 64 nM; Ki (TfQC): 176 ± 3 nM |
| COc1cc(OC)cc(C(=O)N2CCc3[nH]cnc3C2)c1 [8o, (3,5-Dimethoxyphenyl)-(3,4,6,7-tetrahydroimidazo[4,5-c]pyridin-5-yl)methanone] | 928 ± 21 nM |  |
| CC1c2nc[nH]c2CCN1Cc1ccccc1 (stereo not shown) [7d, 5-Benzyl-4-methyl-3,4,6,7-tetrahydroimidazo[4,5-c]pyridine] | 3080 ± 40 nM |  |
| COc1ccc(C(=O)N2CCc3[nH]cnc3C2)cc1 [8l, (4-Methoxyphenyl)-(3,4,6,7-tetrahydroimidazo[4,5-c]pyridin-5-yl)methanone] | 833 ± 49 nM |  |
| O=C(c1ccc2c(c1)OCCO2)N1CCc2[nH]cnc2C1 [8p, (2,3-Dihydrobenzo[b][1,4]dioxin-6-yl)(1,4,6,7-tetrahydro-5H-imidazo-[4,5-c]pyridin-5-yl)methanone] | 1340 ± 219 nM |  |
| O=C(c1cccc(Cl)c1)N1CCc2[nH]cnc2C1 [8i, (3-Chlorophenyl)-(3,4,6,7-tetrahydroimidazo[4,5-c]pyridin-5-yl)methanone] | 174 ± 14 nM |  |
| c1ccc(Cn2ccnc2)cc1 [compound 3, N-benzylimidazole, reference compound] | 10000 ± 200 nM | Ki [4]: 17000 ± 3000 nM |

| Structure (SMILES) | Ki [1, 5] | further results |
| --- | --- | --- |
| O=C(c1cccc(F)c1)N1CCc2[nH]cnc2C1 [8f, (3-Fluorophenyl)-(3,4,6,7-tetrahydroimidazo[4,5-c]pyridin-5-yl)methanone] | 322 ± 6 nM |  |
| c1ccc(CN2CCc3[nH]cnc3C2)cc1 [7a, 5-Benzyl-3,4,6,7-tetrahydroimidazo[4,5-c]pyridine] | 909 ± 5 nM |  |
| COc1ccc(NC(=S)NCCCn2ccnc2)cc1OC [PQ50, reference compound] | 6000 ± 150 nM |  |
| c1ccc(CCN2CCc3[nH]cnc3C2)cc1 [7b, 5-(2-Phenylethyl)-3,4,6,7-tetrahydroimidazo[4,5-c]pyridine] | 6470 ± 400 nM |  |
| COc1cc(C(=O)N2CCc3[nH]cnc3C2)ccc1F [8s, (4-Fluoro-3-methoxyphenyl)-(3,4,6,7-tetrahydroimidazo[4,5-c]pyridin-5-yl)methanone] | 1240 ± 113 nM |  |
| O=C(c1cc(F)c(F)c(F)c1)N1CCc2[nH]cnc2C1 [8g, (3,4,6,7-Tetrahydroimidazo[4,5-c]pyridin-5-yl)(3,4,5-trifluoro-phenyl)methanone] | 904 ± 7 nM |  |
| O=C(CCc1ccccc1)N1CCc2[nH]cnc2C1 [8c, 3-Phenyl-1-(3,4,6,7-tetrahydroimidazo[4,5-c]pyridin-5-yl)propan-1-one] | 1750 ± 60 nM |  |
| COc1cc(Cl)cc(C(=O)N2CCc3[nH]cnc3C2)c1 [8t, (3-Chloro-5-methoxyphenyl)(1,4,6,7-tetrahydro-5H-imidazo[4,5-c]pyridin-5-yl)methanone] | 87 ± 6 nM | viability at 30 µM [2]: 96%; viability at 30 µM [3]: 128%; Ki (PiQC): 96 ± 12 nM; Ki [4, 6]: 385 ± 96 nM; Ki (TfQC): 221 ± 19 nM |
| COc1cccc(C(=O)N2CCc3[nH]cnc3C2)c1 [8m, (3-Methoxyphenyl)-(3,4,6,7-tetrahydroimidazo[4,5-c]pyridin-5-yl)methanone] | 335 ± 6 nM |  |
| c1ccc2[nH]cnc2c1 [compound 1, benzimidazole, reference compound] | 32000 ± 1400 nM |  |
| COc1ccc(C(=O)N2CCc3[nH]cnc3C2)cc1OC [8n, (3,4-Dimethoxyphenyl)-(3,4,6,7-tetrahydroimidazo[4,5-c]pyridin-5-yl)methanone] | 1470 ± 304 nM |  |
| O=C(c1ccc(Cl)c(Cl)c1)N1CCc2[nH]cnc2C1 [8j, (3,4-Dichlorophenyl)-(3,4,6,7-tetrahydroimidazo[4,5-c]pyridin-5-yl)methanone] | 257 ± 16 nM |  |
| CCCOc1cccc(C(=O)N2CCc3[nH]cnc3C2)c1 [8r, (3-Propoxyphenyl)-(3,4,6,7-tetrahydroimidazo[4,5-c]pyridin-5-yl)methanone] | 780 ± 24 nM |  |
| c1ccc(CN2CCc3[nH]cnc3C23COC3)cc1 [7c, 5-Benzylspiro[6,7-dihydro-3H-imidazo[4,5-c]pyridine-4,3′-oxetane]] | 1760 ± 145 nM |  |
| O=C(c1ccc(-c2ccccc2)cc1)N1CCc2[nH]cnc2C1 [8u, [1,1′-Biphenyl]-4-yl(3,4,6,7-tetrahydroimidazo[4,5-c]pyridin-5-yl)methanone] | 1900 ± 71 nM |  |
| c1ccc(CN2CCc3nc[nH]c3C2c2ccccc2)cc1 (stereo not shown) [7e, 5-Benzyl-4-phenyl-3,4,6,7-tetrahydroimidazo[4,5-c]pyridine] |  | Inhibition of PgQC at 10 µM [1]: no inhibition @ 10 µM |
